This assay relates to HMG-CoA reductase. Put plainly: intrinsic HMG-CoA reductase inhibition, in vitro protocol of J. Med. Chem., 28, p. 347-358 (1985). In kind it is biochemical. The following applies: IC50 of test compound compared with compactin (mevastatin) determined simultaneously; compactin assigned a value of 100. The procedure: The intrinsic HMG-CoA reductase inhibition activity of the claimed compounds is measured in the in vitro protocol published in J. Med. Chem., 28, p. 347-358 (1985).
For estimation of relative inhibitory potencies, compactin (i.e., mevastatin) was assigned a value of 100 and the IC50 value of the test compound was compared with that of compactin determined simultaneously in the published in vitro protocol.

Data on one compound can be found in patent US5010105A, “Antihypercholesterolemic compounds” (Merck & Co., Inc., priority 1990, dated 1991).

In turn, `CCC(C)(C)C(=O)O[C@H]1C[C@@H](C)C[C@]23C[C@H]2C(=O)[C@H](C)[C@H](CC[C@@H]2C[C@@H](O)CC(=O)O2)[C@@H]13` [Example 1, 6(R)-[2-[2(R),6(S)-dimethyl-8(S)-(2,2-dimethylbutyryloxy)-α-4,4a-methyleno-1,2,3,4,4a,5,6,7,8,8a(R)-decahydro-3-oxo-naphthyl-1(S)]ethyl]-4(R)-hydroxy-3,4,5,6-tetrahydro-2H-pyran-2-one] yielded a relative potency of 186.
